Experimental data published in US20220135622A1, “ANTIBACTERIAL PEPTIDES AND METHODS OF USE” (priority 2019, published 2022).
≈ marks a conversion by molar mass, not a printed value. Like-named read-outs stand apart in the source and are kept apart here. Square brackets hold non-standard residues; d marks the D form. Peptide text beside a SMILES is read from it. aThr = C[C@H](O)[C@H](N)C(=O)O; NMeM = CN[C@@H](CCSC)C(=O)O; hSer = N[C@@H](CCO)C(=O)O; NMeA = CN[C@@H](C)C(=O)O; Nle = CCCC[C@H](N)C(=O)O; Orn = NCCC[C@H](N)C(=O)O; Dap = NC[C@H](N)C(=O)O

Experiments:
P. aeruginosa = assay type: cell-based, Pseudomonas aeruginosa
Outline: (§1)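 Peptides were serially diluted 2-fold in cation-adjusted Mueller Hinton II broth (top final 400-800 μM) with log-phase or overnight-plate bacteria at final OD600 ~0.0002. EDTA was added at 0.5 mM final for E. coli and 0.125 mM for USA300. MIC was read as OD600 after 20 h at 37° C.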

E. coli BW25113 = assay type: cell-based, Escherichia coli
Outline: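 For MIC, bacteria (final OD600 ~0.0002) were incubated with 2-fold peptide dilutions (top 400–800 μM) in cation-adjusted MHB II with or without EDTA, 20 h at 37 °C, read by OD600. EDTA was 0.5 mM for E. coli and 0.125 mM for USA300. The growth-inhibition assay used log-phase cells at OD600 ~0.001, 4 h at 37 °C, BacTiter-Glo luminescence.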

E. coli ΔwaaD + vect. = test: MIC assay, E. coli ΔwaaD + vect.; assay type: cell-based, Escherichia coli; conditions: Table 7
Method: (§2) Bacterial growth conditions. LB or Mueller Hinton II cation-adjusted broth (MHB II, BBL 212322) was prepared according to manufacturer's instructions and supplemented with arabinose at 0.02% for overnight growth or at indicated concentrations in the description of the figures. Bacterial cultures were grown at 37° C. When appropriate, media was supplemented with kanamycin (50 μg/mL), carbenicillin (50 μg/mL), chloramphenicol (12.5 or 25 μg/mL), hygromycin (200 μg/mL), and/or gentamicin (10 μg/mL).
(§3) Peptide sensitivity and MIC assays. Lyophilized peptides (Smartox Biotechnology, CPC Scientific. ABclonal) were solubilized to 10 mM in Tris buffer, pH 8, prior to making a 2-fold dilution series in MHBII cation adjusted broth with highest final assay concentration of 400-800 μM. Bacteria were grown to log phase and added to final OD600˜0.001. The final EDTA concentration was 0.5 mM for E. coli strains and 0.125 mM for USA300. The final volume of 10 μL/well in a 384 well black, clear bottom plate (Corning) was spun <1 min at <250×g and then incubated at 37° C. After 4 h, an equal volume (10 μL) of BacTiter-Glo™ (Promega) was added to each well and luminescence was read after 5 min on an EnVision plate reader (PerkinElmer). To measure the minimal inhibitory concentrations (MICs), bacteria from fresh overnight plates or log phase cultures were diluted with or without EDTA and peptides as described above to final OD600˜0.0002. Plates were incubated at 37° C. for 20 h before measuring OD600 with an EnVision plate reader.

A. baumannii = assay type: cell-based, Acinetobacter baumannii
Outline: as §1

K. pneumoniae = assay type: cell-based, Klebsiella pneumoniae
Outline: as §1

E. coli ΔwaaD MCR-1 = test: MIC assay, E. coli ΔwaaD MCR-1; assay type: cell-based, Escherichia coli; conditions: Table 7
Method: as §2, §3

S. aureus USA300 = test: MIC assay, S. aureus USA300; assay type: cell-based, Staphylococcus aureus; conditions: Table 7
Method: as §2, §3

E. coli imp4213 = test: MIC assay, E. coli imp4213; assay type: cell-based, Escherichia coli; conditions: Table 7
Method: as §2, §3

Row | Compound | MIC R. aeruginosa (P. aeruginosa; Table 8) [µM] | MIC E. coli BW25113 (E. coli BW25113; Table 8) | MIC E. coli ΔwaaD + vect. (E. coli ΔwaaD + vect.) [µM] | MIC A. baumannii (A. baumannii; Table 8) [µM] | MIC K. pneumoniae (K. pneumoniae; Table 8) | MIC E coli ΔwaaD − MCR1 (E. coli ΔwaaD MCR-1) [µM] | MIC S. aureus USA300 (S. aureus USA300) [µM] | MIC E. coli imp4213 (E. coli imp4213) [µM] | MIC R. aeruginosa (P. aeruginosa) [µM] | MIC E. coli BW25113 (E. coli BW25113; BW25113) [µM] | MIC A. baumannii (A. baumannii) [µM] | MIC K. pneumoniae (K. pneumoniae) [µM]
1 | CSCC[C@H](NC(=O)[C@@H]1CCCN1C(=O)[C@H](Cc1ccc(O)cc1)NC(C)=O)C(=O)N[C@H](C(=O)N[C@@H](C)C(=O)N[C@@H](CCCNC(=N)N)C(=O)N[C@@H](CCCNC(=N)N)C(=O)N[C@@H](Cc1ccccc1)C(=O)N[C@@H](CC(C)C)C(=O)N[C@@H](CCC(=O)O)C(=O)N[C@@H](CCCCN)C(=O)N[C@@H](Cc1c[nH]c2ccccc12)C(=O)NCC(=O)N[C@@H](CC(C)C)C(=O)N[C@@H](CC(C)C)C(=O)N[C@@H](CCCNC(=N)N)C(N)=O)[C@H](C)O [compound 48] (Ac-YPM[aThr]ARRFLEKWGLLR-NH2) | 400 (≈ 831 µg/mL) | 400 µM (≈ 831 µg/mL) | 100 | 200 (≈ 416 µg/mL) | 400 µM (≈ 831 µg/mL) | 400 (≈ 831 µg/mL) | >400 | 17.5 (≈ 36.4 µg/mL) | – | – | – | –
2 | CSCC[C@H](NC(=O)[C@@H]1CCCN1C(=O)[C@H](Cc1ccc(O)cc1)NC(C)=O)C(=O)N[C@@H](CN)C(=O)N[C@@H](C)C(=O)N[C@@H](CCCNC(=N)N)C(=O)N[C@@H](CCCNC(=N)N)C(=O)N[C@@H](Cc1ccccc1)C(=O)N[C@@H](CC(C)C)C(=O)N[C@@H](CCC(=O)O)C(=O)N[C@@H](CCCCN)C(=O)N[C@@H](Cc1c[nH]c2ccccc12)C(=O)NCC(=O)N[C@@H](CC(C)C)C(=O)N[C@@H](CC(C)C)C(=O)N[C@@H](CCCNC(=N)N)C(N)=O [compound 51] (Ac-YPM[Dap]ARRFLEKWGLLR-NH2) | 400 (≈ 825 µg/mL) | 100 µM (≈ 206 µg/mL) | 100 | 100 (≈ 206 µg/mL) | 200 µM (≈ 413 µg/mL) | 200 (≈ 413 µg/mL) | >400 | 12.5 (≈ 25.8 µg/mL) | – | – | – | –
3 | CSCC[C@H](NC(=O)[C@@H]1CCCN1C(=O)[C@H](Cc1ccc(O)cc1)NC(C)=O)C(=O)N[C@H](C(=O)N[C@@H](C)C(=O)N[C@@H](CCCN)C(=O)N[C@@H](CCCNC(=N)N)C(=O)N[C@@H](Cc1ccccc1)C(=O)N[C@@H](CC(C)C)C(=O)N[C@@H](CCC(=O)O)C(=O)N[C@@H](CCCCN)C(=O)N[C@@H](Cc1c[nH]c2ccccc12)C(=O)NCC(=O)N[C@@H](CC(C)C)C(=O)N[C@@H](CC(C)C)C(=O)N[C@@H](CCCNC(=N)N)C(N)=O)[C@@H](C)O [compound 53] (Ac-YPMTA[Orn]RFLEKWGLLR-NH2) | 400 (≈ 815 µg/mL) | 400 µM (≈ 815 µg/mL) | 100 | 400 (≈ 815 µg/mL) | 800 µM (≈ 1630 µg/mL) | 400 (≈ 815 µg/mL) | >400 | – | – | – | – | –
4 | CCCC[C@H](NC(=O)[C@@H]1CCCN1C(=O)[C@H](Cc1ccc(O)cc1)NC(C)=O)C(=O)N[C@H](C(=O)N[C@@H](C)C(=O)N[C@@H](CCCNC(=N)N)C(=O)N[C@@H](CCCNC(=N)N)C(=O)N[C@@H](Cc1ccccc1)C(=O)N[C@@H](CC(C)C)C(=O)N[C@@H](CCC(=O)O)C(=O)N[C@@H](CCCCN)C(=O)N[C@@H](Cc1c[nH]c2ccccc12)C(=O)NCC(=O)N[C@@H](CC(C)C)C(=O)N[C@@H](CC(C)C)C(=O)N[C@@H](CCCNC(=N)N)C(N)=O)[C@@H](C)O [compound 62] (Ac-YP[Nle]TARRFLEKWGLLR-NH2) | 200 (≈ 412 µg/mL) | 400 µM (≈ 824 µg/mL) | <6.25 | 200 (≈ 412 µg/mL) | 200 µM (≈ 412 µg/mL) | 200 (≈ 412 µg/mL) | – | – | – | – | – | –
5 | CSCC[C@H](NC(=O)[C@@H]1CCCN1C(=O)[C@H](Cc1ccc(O)cc1)NC(C)=O)C(=O)N[C@@H](CCO)C(=O)N[C@@H](C)C(=O)N[C@@H](CCCNC(=N)N)C(=O)N[C@@H](CCCNC(=N)N)C(=O)N[C@@H](Cc1ccccc1)C(=O)N[C@@H](CC(C)C)C(=O)N[C@@H](CCC(=O)O)C(=O)N[C@@H](CCCCN)C(=O)N[C@@H](Cc1c[nH]c2ccccc12)C(=O)NCC(=O)N[C@@H](CC(C)C)C(=O)N[C@@H](CC(C)C)C(=O)N[C@@H](CCCNC(=N)N)C(N)=O [compound 63] (Ac-YPM[hSer]ARRFLEKWGLLR-NH2) | 400 (≈ 831 µg/mL) | 400/200 | <6.25 | 200 (≈ 416 µg/mL) | 200 µM (≈ 416 µg/mL) | 200 (≈ 416 µg/mL) | – | – | – | – | – | –
6 | CSCC[C@H](NC(=O)[C@@H]1CCCN1C(=O)[C@H](Cc1ccc(O)cc1)NC(C)=O)C(=O)N[C@H](C(=O)N(C)[C@@H](C)C(=O)N[C@@H](CCCNC(=N)N)C(=O)N[C@@H](CCCNC(=N)N)C(=O)N[C@@H](Cc1ccccc1)C(=O)N[C@@H](CC(C)C)C(=O)N[C@@H](CCC(=O)O)C(=O)N[C@@H](CCCCN)C(=O)N[C@@H](Cc1c[nH]c2ccccc12)C(=O)NCC(=O)N[C@@H](CC(C)C)C(=O)N[C@@H](CC(C)C)C(=O)N[C@@H](CCCNC(=N)N)C(N)=O)[C@@H](C)O [compound 64] (Ac-YPMT[NMeA]RRFLEKWGLLR-NH2) | 400 (≈ 837 µg/mL) | 400 µM (≈ 837 µg/mL) | <6.25 | 400 (≈ 837 µg/mL) | None/400 | 400 (≈ 837 µg/mL) | – | 12.5 (≈ 26.2 µg/mL) | – | – | – | –
7 | CSCC[C@@H](C(=O)N[C@H](C(=O)N(C)[C@@H](C)C(=O)N[C@@H](CCCNC(=N)N)C(=O)N[C@@H](CCCNC(=N)N)C(=O)N[C@@H](Cc1c[nH]c2ccccc12)C(=O)N[C@@H](CC(C)C)C(=O)N[C@@H](C)C(=O)N[C@@H](CCCCN)C(=O)N[C@@H](CCCNC(=N)N)C(=O)NCC(=O)N[C@@H](CC(C)C)C(N)=O)[C@@H](C)O)N(C)C(=O)[C@@H]1CCCN1C(=O)[C@H](CCCNC(=N)N)NC(C)=O [compound 216] (Ac-RP[NMeM]T[NMeA]RRWLAKRGL-NH2) | – | – | – | – | – | – | – | – | >400.0 | 100.0 (≈ 178 µg/mL) | >400.0 | >400.0
8 | Ac-RPMTARRFLAKRGL-NH2 [compound 210] | >400.0 | 200.0 µM | – | >400.0 | >400.0 µM | – | – | – | – | – | – | –
9 | Ac-RPMTARRWLAKRGL-NH2 [compound 201] | – | – | – | – | – | – | – | – | >400.0 | 25.0 | >400.0 | >400.0
10 | Ac-RPMTARRWLEKRGL-NH2 [compound 202] | >400.0 | 50.0 µM | – | >400.0 | >400.0 µM | – | – | – | – | – | – | –
11 | Ac-RPMTFRRFLEKWGL-NH2 [compound 73] | 800 | 50 µM | – | 50 | 200 µM | – | – | – | – | – | – | –
12 | Ac-RPMTMRRFLEKWGL-NH2 [compound 206] | 200.0 | 200.0 µM | – | 200.0 | 200.0 µM | – | – | – | – | – | – | –
13 | Ac-RPMTSRRWLAKRGL-NH2 [compound 214] | – | – | – | – | – | – | – | – | >400.0 | 100.0 | >400.0 | >400.0
14 | Ac-RPMTWRRFLAKRGL-NH2 [compound 203] | – | – | – | – | – | – | – | – | >400.0 | 200.0 | 400.0 | >400.0
15 | Ac-RPMTWRRFLAKYGL-NH2 [compound 200] | – | – | – | – | – | – | – | – | 50.0 | 50.0 | 50.0 | 200.0
16 | Ac-YPMTARRFFEKWGLLR-NH2 [compound 94] | >400.0 | 200.0 µM | – | 200.0 | >400.0 µM | – | – | – | – | – | – | –
17 | Ac-YPMTARRFLQKWGLLR-NH2 [compound 72] | 800 | 400 µM | – | 50 | 400 µM | – | – | – | – | – | – | –
18 | Ac-YPMTFRRFLAKWGLLR-NH2 [compound 87] | 50.0 | 100.0 µM | – | 25.0 | 25.0 µM | – | – | – | – | – | – | –
19 | Ac-YPMTLRRFLEKWGLLR-NH2 [compound 83] | 200.0 | 200.0 µM | – | 50.0 | 100.0 µM | – | – | – | – | – | – | –
